Laboratory results taken from patent US11554182B2, “Macrocyclic complexes of alpha-emitting radionuclides and their use in targeted radiotherapy of cancer” (CORNELL UNIVERSITY, priority 2017, dated 2023).

Key:
[1] = Kinetic inertness of ^225Ac complex: transmetalation challenge with La^3+; type: physicochemical; conditions: 50-fold excess of La^3+, macropa 0.59 μM, RT, over 7 days
Description: General. Stock solutions of La(NO3)3 (0.001 M or 0.1 M) were prepared in H2O. To the radiolabeled samples containing macropa (10 μL of 10^−5 M stock; 1.0×10^−10 moles) or DOTA (10 μL of 10^−3 M stock; 1.0×10^−8 moles) and ^225Ac (10 μL, 26 kBq) in NH4OAc buffer (pH 6, 0.15 M, 150 μL), a 50-fold mole excess of La^3+ was added (5 μL of 0.001 M or 0.1 M stock were added to solutions containing macropa and DOTA, respectively). The solutions were kept at room temperature and analyzed by iTLC at several time points over the course of 8 days. The iTLC plates were developed using citric acid (0.05 M, pH 5) as the eluent. Under these conditions, [^225Ac(macropa)]^+ and [^225Ac(DOTA)]^− remained at the baseline (RF=0) and any unchelated ^225Ac (^225Ac-citrate) migrated with the solvent front (RF=1). Percent of complex remaining intact was calculated by integrating area under the peaks on the radiochromatogram and dividing the counts associated with the ^225Ac-complex (RF=0) by the total counts integrated along the length of the iTLC plate.
The long half-life of ^225Ac necessitates its stable complex retention in vivo to avoid off-target damage to normal tissues arising from the release of free ^225Ac^3+. Furthermore, the stability of ^225Ac complexes against transmetalation and transchelation needs to be high. […]

[2] = Stability of [^225Ac(macropa)]^+ in human serum (radio-TLC); type: in vitro ADME
Description: […]. [^225Ac(macropa)]^+ and [^225Ac(DOTA)]^− were prepared using 10^−5 M and 10^−3 M stock solutions (10 μL) of macropa and DOTA, respectively, to give final ligand concentrations of 5.9×10^−7 M (macropa) and 5.9×10^−5 M (DOTA). After confirming a radiochemical yield of >90% by TLC using 0.4 M sodium citrate (pH 4) containing 10% MeOH as the mobile phase, 160 μL of human serum (an equal volume based on labeling reaction volume) were added to each radiolabeled solution. A control solution was also prepared in which water was substituted for ligand. The solutions were monitored over the course of 8 days by iTLC. The plates were developed with EDTA (50 mM, pH 5) as the eluent. Under these conditions, [^225Ac(macropa)]^+ and [^225Ac(DOTA)]^− complexes remained at the baseline (RF=0) and any ^225Ac (^225Ac-EDTA) that had been transchelated by serum migrated with the solvent front (RF=1). Percent of complex remaining intact was calculated.
The long half-life of ^225Ac necessitates its stable complex retention in vivo to avoid off-target damage to normal tissues arising from the release of free ^225Ac^3+. Furthermore, the stability of ^225Ac complexes against transmetalation and transchelation needs to be high. To determine the kinetic inertness, [^225Ac(macropa)]^+ was challenged with La^3+ because of the established high affinity of macropa for this metal ion. […]

Question: Which “^225Ac complex remaining intact” value [1] does the source give for O=C([O-])c1cccc(CN2CCOCCOCCN(Cc3cccc(C(=O)[O-])n3)CCOCCOCC2)n1.[225Ac+3] [[^225Ac(macropa)]^+] here?
Answer: 98%

Question: And the “time ^225Ac^3+ remains complexed in human serum” value [2]?
Answer: at least 8 days
